Test results as given in US9931332B2, “Compositions and methods for treating primary effusion lymphoma” (University of Southern California, priority 2014, dated 2018).

Key:
[1] = system: IKZF1 (Ikaros), IKZF3 (Aiolos); assay: Immunoblot of IKZF1 and IKZF3 expression; assay type: cell-based; conditions: BC-3 and BCBL-1, MLN4924 pretreatment 1 h then IMiDs 15 h
Protocol: (§2) Cells were lysed in lysis buffer containing 20 mM sodium phosphate (pH 7.4), 150 mM NaCl, 0.1% Triton X-100, 0.2 M PMSF, and 10% glycerol supplement with a protease inhibitor mixture tablet (Roche). Whole cell extracts were resolved by SD-polyacrylamide gel electrophoresis, transferred to nitrocellulose membrane, and probed with the indicated primary antibodies. Bound antibodies were detected with IRdye 680 or 800 (Licor biosciences) and blots were scanned with licor odyssey CLx imaging system (Licor biosciences). Primary antibodies used in these experiments were from the following sources: PARP (9542), NF-κB2 (p100/p52; 4882) from Cell Signaling; IRF4 (6059), IKZF1 (13039), HSP90 (69703), IKKα/β (7607), RELB (226) from Santa Cruz Biotechnology; MYC (1472-1, Epitomics); tubulin (T9026), cereblon (HPA045910) from Sigma; GAPDH (1107018, Ambion), IKZF3 (6255, Imgenex) and BRD4 (a gift from Dr. Peter Howley, Harvard Medical School).

BC-3 and BCBL-1 cells [2] = assay: Combination index (Chou and Talalay, calcusyn), MTS viability; assay type: cell-based; conditions: low doses, 12 combinations each, all combination doses tested
Protocol: (§1) Cells from exponentially growing cultures were plated in untreated flat-bottom 96 well plates at a density of 5×10^3 cells/well, treated with an increasing concentration of the drugs and subsequently assessed for cell viability using the MTS reagent (3-4,5-dimethylthiazol-2yl)-5-(3-carboxy-methoxyphenyl)-2-(4-sulfophenyl)-2H-tetrazolium, inner salt) following the manufacturer's instructions (Promega). Percent cell survival was calculated based on the reading of cells grown in the presence of DMSO control. Experiments were performed in triplicate and have been repeated 2-3 times.

[3] = system: panel of hematological cancer cell lines; assay: Cell viability, MTS assay, panel of hematological cancer cell lines; assay type: cell-based; conditions: 5 days, increasing concentrations
Protocol: as §1

PEL cell lines = assay: Cell viability, MTS assay; assay type: cell-based; conditions: for sensitivity of the 5 PEL cell lines to recombinant IFN: BC-3, BCBL-1, JSC-1, BC-1 and VG-1, 5 days; for PEL cell lines sensitive within physiologically achievable doses: 7 PEL cell lines, increasing concentrations
Protocol: as §1

BJAB cells = assay: Cell viability, MTS assay; assay type: cell-based; conditions: 5 days
Protocol: as §1

cereblon (CRBN) = cereblon (CRBN) (Homo sapiens, UniProt Q96SW2); conditions: 48 h
Protocol: Cells were lysed in lysis buffer containing 20 mM sodium phosphate (pH 7.4), 150 mM NaCl, 0.1% Triton X-100, […], and 10% glycerol supplement with a protease inhibitor mixture tablet (Roche). Whole cell extracts were resolved by SD-polyacrylamide gel electrophoresis, transferred to nitrocellulose membrane, and probed with the indicated primary antibodies. Bound antibodies were detected with IRdye 680 or 800 (Licor biosciences) and blots were scanned with licor odyssey CLx imaging system (Licor biosciences).

PEL = conditions: treated for 18 months so far (Antar et al., 2014); cited from earlier work
[4] = system: IKKα/β, p100/p52 and RELB; assay: Immunoblot of NF-κB proteins; assay type: cell-based; conditions: BC-3, BCBL-1, JSC-1 and DG-75 cells, increasing doses
Protocol: as §2

PEL cells = assay: Real-time qRT-PCR of mRNA expression; assay type: cell-based
Protocol: Real-time quantitative reverse transcript-polymerase chain reaction (qRT-PCR) was performed with SYBR Green using gene-specific PCR primers. Samples were run in triplicate, and PCR was performed by an ABI Step One Plus thermocycler (Applied Biosystems). GAPDH was used as housekeeping gene and qRT-PCR data (Ct values) was analyzed using the 2^−ΔΔCT method as described earlier (Zhao et al., 2007). The qRT-PCR data was presented as fold change in target gene expression±standard error.

BC-3 and BCBL-1 cells [5] = assay: Genome-wide microarray analysis; conditions: 5 μM, 24 h
Protocol: Two technical replicates per cell line per condition (8 samples total) were assayed on the Illumina Human HT12 BeadChip whole genome expression microarray, with coverage of 39809 coding transcripts and 3961 non-coding transcripts. Probe intensities were extracted directly from binary IDAT files using the ‘illuminaio’ package (Smith et al., 2013). Background correction and normalization was then performed using ‘limma’ package (Smyth, 2005). An estimate of the fraction of probes with detectable expression (approximately 47% of the probes present on the array) was extracted by comparing the negative control probe intensities with hybridization probe intensities; probes failing this cutoff were filtered from further analysis. An empirical Bayes linear model including treatment and cell-line specific effects was fitted to the filtered data, again using ‘limma’. […] Hierarchial clustering with Euclidean distance and centroid linkage was performed in R (http://www.R-project.org). A heat map of differences (corrected for cell-line-specific effects) was plotted.

IL-6 = IL-6 ELISA in supernatants of BC-3 cells; assay type: cell-based, Human; conditions: 12, 24 and 48 h
Protocol: IL-6 was measured in supernatants using BD OptEIA™ Human IL-6 ELISA set as per manufacturer's instructions.

BC-3 cells = assay: PEL orthotopic tumor model; assay type: in vivo, NOD.SCID mice; design: dose or concentration left out as unconfirmed; conditions: once daily for 28 days, intraperitoneally
Protocol: A total of 2×10^7 BC-3 cells were injected intraperitoneally into female NOD.SCID mice (NCI Frederick, 6 weeks old). 5 days after tumor cells inoculation the mice were randomly divided in to 4 groups (n=7 each). […] (once daily), JQ-1 50 mg/kg b.w. (once daily) and the combination were administered intraperitoneally daily for 28 days. Then the animals were monitored for survival. Body weight gain was measured once in 3 days as a surrogate measure of tumor progression (Qin et al., 2014). The experiments were performed following the guidelines of institutional animal ethics committee.

[6] = BC-3, BCBL-1 and JSC-1, 5 μM, 24 h

Sequence of cereblon (CRBN) (Q96SW2 whole entry): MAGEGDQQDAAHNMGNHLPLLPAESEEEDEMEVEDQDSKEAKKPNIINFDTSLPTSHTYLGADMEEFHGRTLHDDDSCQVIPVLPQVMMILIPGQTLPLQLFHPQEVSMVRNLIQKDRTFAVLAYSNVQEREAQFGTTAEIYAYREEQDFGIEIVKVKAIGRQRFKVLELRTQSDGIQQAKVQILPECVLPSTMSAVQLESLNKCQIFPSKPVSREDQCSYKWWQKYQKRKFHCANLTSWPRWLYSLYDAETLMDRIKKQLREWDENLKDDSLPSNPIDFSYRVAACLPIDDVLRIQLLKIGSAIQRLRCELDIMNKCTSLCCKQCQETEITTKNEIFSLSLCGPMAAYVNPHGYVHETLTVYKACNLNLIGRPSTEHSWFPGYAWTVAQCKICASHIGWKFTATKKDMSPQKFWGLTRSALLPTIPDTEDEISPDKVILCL

NS(=O)(=O)OC[C@@H]1C[C@@H](n2ccc3c(N[C@H]4CCc5ccccc54)ncnc32)C[C@@H]1O [MLN4924]
effect on downregulation of IKZF1 by IMiDs [1]: completely blocked

COc1ccccc1S(=O)(=O)Nc1ccc2c(c1)CN(C)C(=O)N2 [PFI-1]
synergy of lenalidomide with BRD4 inhibitor (combination index) (BC-3 and BCBL-1 cells [2]): highly synergistic

O=C1CCC(N2C(=O)c3ccccc3C2=O)C(=O)N1 (stereo not shown) [thalidomide]
effect on the growth of the cell lines [3]: did not have any major effect

IFN-α
sensitivity of BC-3, BCBL-1 and JSC-1 to recombinant IFN (PEL cell lines; 5 days): highly sensitive
sensitivity of the 5 PEL cell lines to recombinant IFN (PEL cell lines): sensitive
effect of recombinant IFN on BJAB (BJAB cells): very little effect

COc1cc2c(cc1-c1c(C)noc1C)ncc1[nH]c(=O)n([C@H](C)c3ccccn3)c12 [IBET151]
synergy of lenalidomide with BRD4 inhibitor (combination index) (BC-3 and BCBL-1 cells [2]): highly synergistic

Nc1cccc2c1C(=O)N(C1CCC(=O)NC1=O)C2=O (stereo not shown) [pomalidomide]
PEL cell lines sensitive within physiologically achievable doses (PEL cell lines; 5 days): 6/7
CRBN level in BCBL-1 cells (cereblon (CRBN)): no change
level of cereblon in BC-3 cells (cereblon (CRBN)): slight decrease

Nc1cccc2c1CN(C1CCC(=O)NC1=O)C2=O (stereo not shown) [lenalidomide]
outcome of elderly HIV-negative, KSHV-positive PEL patient (PEL): without any symptoms or evidence of disease progression
expression of IKKα/β, p100/p52 and RELB proteins [4]: did not have any significant effect
PEL cell lines sensitive within physiologically achievable doses (PEL cell lines; 5 days): 5/7
mRNA levels of IKZF1 (PEL cells; [6]): moderately up-regulated
mRNA levels of IRF4, MYC and its target TERT (PEL cells; [6]): down-regulated mildly, and moderately
transcript levels of IFNs and interferon specific genes (ISGs) (PEL cells; BCBL-1 cells, 5 μM, 24 hours): upregulated
downregulated genes (BC-3 and BCBL-1 cells [5]): 390 genes
upregulated genes (BC-3 and BCBL-1 cells [5]): 602 genes
genes whose expression changed significantly (pFDR<0.05) (BC-3 and BCBL-1 cells [5]; both cell lines): 992 genes
IL-6 secretion by BC-3 cells (IL-6): did not have any significant effect
median survival (BC-3 cells): 35 days

Cc1sc2c(c1C)C(c1ccc(Cl)cc1)=N[C@@H](CC(=O)OC(C)(C)C)c1nnc(C)n1-2 [JQ-1]
synergy of lenalidomide with BRD4 inhibitor (combination index) (BC-3 and BCBL-1 cells [2]): highly synergistic
median survival (BC-3 cells): 42 days

IFN-γ: recombinant interferon γ
sensitivity of the 5 PEL cell lines to recombinant IFN (PEL cell lines): sensitive
effect of recombinant IFN on BJAB (BJAB cells): without any significant effect
